Test system: FAK
Test: pFAK397 western blot in cultured podocytes -/+ TAE226
Assay type: cell-based, mouse
Conditions: 20 μM TAE226, podocytes on placental laminin
Method: Basal Lamina and −/+ TAE226 pFAK^397 Western Blots. 10 day differentiated GEC's were cultured in 0.5% FCS for 2 days and plated onto tissue culture dishes previously coated with 50 μg/ml Collagen Type 1 Rat Tail (BD Biosciences) and 2 μg/cm^2 Placental Laminin (Sigma) in 0.1% BSA containing media. For Basal Lamina experiment, additional dishes were coated with Collagen Type 1 and 1.25 μg/cm^2 EHS Laminin (BD Biosciences) or […] Merosin (Chemicon, Temecula Calif.). For −/+ TAE266 experiment, 20 μM TAE226 was included in the media. Protein was collected 15 hours later in M-PER (Thermo Scientific) as above and Western Blot run as described below.
Immunoblotting. Ten to fifteen micrograms, of cellular protein, was resolved in a 10% SDS-PAGE and then electrotransfered to PVDF membrane. The membranes were cut in half and the upper half (250 kDa to 75 kDa) used for pFAK/tFAK immunoblotting while the bottom half used for β-actin immunoblotting (loading control). Conditions for pFAK detection: the membrane was blocked in milk blocking solution (5% milk containing 0.2% Tween-20 in PBS) for 1 hour at room temperature with constant shaking and incubated overnight at 4° C. with anti-pFAK 1:1,000 in BSA blocking solution (1% BSA containing 0.2% Tween-20 in PBS). […]

CNC(=O)c1ccccc1Nc1nc(Nc2ccc(N3CCOCC3)cc2OC)ncc1Cl [TAE226]
Activation state of FAK (pFAK397) in cultured podocytes: reduced

Reference: US9719981B2, “RAC1 inhibitors for the treatment of alport glomerular disease” (Father Flanagan's Boys' Home, priority 2012, dated 2017)
